Where a name gives a salt, the structure may show the parent alone.
Key:
Abutilon theophrasti = test: Herbicidal property on weeds; details: in vivo
morning glory spp. [1] = test: Herbicidal property on weeds; assay type: in vivo; details: for Herbicidal activity: all of the tested morning glory spp.
[2] = test system: morning glory spp. such as Ipomoea triloba L. and Ipomoea hederacea Jacq.; test: Morning glory spp. control test with bialaphos solution (soybean field); assay type: in vivo; details: for Herbicidal effect 1 week after: water 100 L/10 a, sprayed up to 20 cm above ground
Method: On Aug. 9, 2005, a bialaphos solution (active ingredient amount: 18%, used in the form of the sodium salt bialaphos-sodium, amount calculated for bialaphos) was sprayed (solution amount: 500 to 1500 mL/10 a, water amount: 100 L/10 a) to morning glory spp. (height: 55 cm to 70 cm) such as Ipomoea triloba L. and Ipomoea hederacea Jacq. generated between ridges in a soybean field and coiled around soybean, from land surface up to a height of 20 cm above ground, and the herbicidal effect thereafter was observed.

Aeschynomene indica = test: Herbicidal property on weeds; details: in vivo
morning glory spp. [3] = test: Control machine-spraying of glufosinate (salt) on soybean inter-ridge: herbicidal effect; assay type: in vivo; details: 500 mL/10 a in 100 L/10 a water
Method: (§1) Soybean cultivation in the Tokai region is often carried out with large scale by farming associates and large scale farmhouses. Under such circumstances, morning glory spp. cause a serious problem in soybean fields during its growth period, and its controlling method is required to be established quickly. In soybean fields in Anjo City, Aichi Prefecture showing a problem of morning glory spp., a test for proving applicability of controlling morning glory spp. was performed using a control machine-spraying intending laborsaving.
(§2) A commercially available spraying apparatus was attached to the front side of a riding-type control machine, and glufosinate was sprayed from near ground edge. The nozzle position can be varied depending on ridge width and soybean height. In a theory of spraying a herbicide, the herbicide is introduced from a herbicide tank through a hose so that the herbicide can be sprayed on a lower part between ridges (suspending mode). Some farmhouses devise by themselves this spraying apparatus.
In spraying (FIGS. 1, 2 and 3), morning glory spp. developed almost all over the field, and some of them coiled around soybean, the peak portion thereof extending up to over the head portion of soybean. FIG. 1 is a photograph showing full view of glufosinate spraying. FIG. 2 is a photograph showing glufosinate (salt) sprayed part. FIG. 3 is a photograph showing a herbicidal process of glufosinate (salt). […] FIG. 4 is a photograph showing the killing effect of glufosinate (salt) ranging to the peak portion (shown with an arrow) of the stem of Ipomoea triloba L. (14 days after spraying, August 23). […] This effect appeared even in the peak portion of the stem extending up to over the head portion of the soybean, and in this portion, leaves and stems of morning glory spp. turned to yellow. […] From these phenomena, it was believed that the morning glory spp. show very higher sensitivity to glufosinate (salt) than soybean.

HIROHAFUURINHOZUKI = test: Herbicidal property on weeds; details: in vivo
Ipomoea hederacea Jacq. = test: Morning glory spp. control test: glufosinate (salt) sprayed only on lower half portion of hill; assay type: in vivo; parameters: key to Effect, upper half portion of hill / Effect, lower half portion of hill: +++ complete death; ++ almost death; + partial death; − no effect
Method: (§3) In the case of spraying of glufosinate (salt) only on the lower half portion of a hill of morning glory spp:
(§4) Ipomoea hederacea Jacq. and Ipomoea triloba L. generated in the form of grapevine and at the edge of a soybean field in Anjo City, Aichi Prefecture were tested. A 200-fold diluted solution of glufosinate was sprayed only on the lower half portion of the hill while covering the upper half portion thereof with plastic film so that the solution was not sprayed thereon. Thereafter, effects on the lower and upper half portions were observed.

Ipomoea triloba L. = test: as above; assay type: in vivo; parameters: key: +++ complete death; ++ almost death; + partial death; − no effect; details: treated Aug. 13, 2005, examined August 23
Method: as §3, §4

Ipomoea lacunosa L. = test: Morning glory spp. control test: glufosinate (salt) sprayed only on upper portion of stem (pot test); assay type: in vivo; parameters: key to Effect, leaf 6 / Effect, leaf 5 / Effect, leaf 4 / Effect, leaf 3 / Effect, leaf 2 / Effect, leaf 1 / Effect, root / Effect, peak portion of stem / Effect, leaf 8 / Effect, leaf 7: +++ complete death; ++ almost death; + partial death; − no effect
Method: In the case of spraying of glufosinate (salt) only on the upper portion of morning glory spp:
Ipomoea lacunosa L. (eight leaves) in a pot was tested. A 200-fold diluted solution of glufosinate (salt) was sprayed only on the upper portion of a stem while preventing spraying on the lower portion thereof. Thereafter, effects on respective portions were observed.

Solanum carolinense = test: Herbicidal property on weeds; details: in vivo
soybean = test: Control machine-spraying of glufosinate (salt) on soybean inter-ridge: phytotoxicity and bean weight of soybean; assay type: in vivo; details: for Bean weight: soybean field with rampant morning glory spp., 500 mL/10 a sprayed August 9, crop November 11, non-sprayed district 96 ± 21
Method: as §1, §2

Sida spinosa L. = test: Herbicidal property on weeds; details: in vivo
[4] = not sprayed, 200-fold diluted solution sprayed from peak to between sixth and seventh leaves, examined November 6
[5] = sprayed region, 200-fold diluted solution sprayed on upper portion of stem, treated Oct. 23, 2005, examined November 6
[6] = scattering to soybean, 500 mL/10 a

With `CC(C)N1C(=O)c2ccccc2NS1(=O)=O` [Pentazone] the Herbicidal activity (Abutilon theophrasti) was “high activity” and the Herbicidal activity (morning glory spp. [1]) was “lower activity”.

In the case of `C[C@H](NC(=O)[C@H](C)NC(=O)[C@@H](N)CCP(C)(=O)O)C(=O)O` [bialaphos solution, bialaphos], the “Herbicidal effect 1 week after” value ([2]; solution amount 500 mL/10 a) is reported as “died up to the peak portion of vine”, the “Herbicidal effect 1 week after” value ([2]; solution amount 1000 mL/10 a) is reported as “died up to the peak portion of vine” and the “Herbicidal effect 1 week after” value ([2]; solution amount 1500 mL/10 a) is reported as “died up to the peak portion of vine”. The “Onset of effect after the treatment” value ([2]; sprayed from land surface up to 20 cm above ground, 500 to 1500 mL/10 a) was “observed from the next day after the treatment”.

In the case of `CP(=O)(O)CCC(N)C(=O)O` (stereo not shown) [glufosinate (salt), glufosinate], the Herbicidal activity (Aeschynomene indica) is reported as “high activity”, the “Herbicidal effect 4 days after spraying” value (morning glory spp. [3]; August 13) is reported as “most of leaves at grapevine-form parts of the morning glory spp. died” and the “Herbicidal effect 14 days after spraying” value (morning glory spp. [3]; August 23) is reported as “most of the morning glory spp. died up to the peak portion of the stem”. For the same compound, the “Onset of herbicidal effect after spraying” value (morning glory spp. [3]; soybean field) was “observed from the next day after spraying”, the Herbicidal activity (HIROHAFUURINHOZUKI) was “high activity” and the “Effect, lower half portion of hill” value (Ipomoea hederacea Jacq.; 200-fold diluted solution sprayed on lower half portion (sprayed portion), treated Aug. 13, 2005, examined August 23) was “+++”. The “Effect, upper half portion of hill” value (Ipomoea hederacea Jacq.; 200-fold diluted solution sprayed on lower half portion only, upper half not sprayed, treated Aug. 13, 2005, examined August 23, hills around 70 cm) was “+++”, the “Where activity appeared after spraying only the lower half portion of the hill” value (Ipomoea hederacea Jacq.; morning glory spp. (Ipomoea hederacea Jacq. and Ipomoea triloba L., see Table 1)) was “appeared not only in the lower half portion of the hill but also in the peak thereof” and the “Effect, lower half portion of hill” value (Ipomoea triloba L.; 200-fold diluted solution sprayed on lower half portion (sprayed portion)) was “+++”. The “Effect, upper half portion of hill” value (Ipomoea triloba L.; 200-fold diluted solution sprayed on lower half portion only, upper half not sprayed, hills around 70 cm) was “+++”, the “Effect, leaf 1” value (Ipomoea lacunosa L.; [4]) was “−” and the “Effect, leaf 2” value (Ipomoea lacunosa L.; [4]) was “−”. The “Effect, leaf 3” value (Ipomoea lacunosa L.; [4]) was “−”, the “Effect, leaf 4” value (Ipomoea lacunosa L.; [4]) was “−” and the “Effect, leaf 5” value (Ipomoea lacunosa L.; [4]) was “++”. The “Effect, leaf 6” value (Ipomoea lacunosa L.; [4]) was “++”, the “Effect, root” value (Ipomoea lacunosa L.; [4]) was “−” and the “Effect in the lower leaves and in root after spraying only the upper portion of the stem” value (Ipomoea lacunosa L.; see Table 2) was “not observed”. The “Effect under the sprayed region after spraying only the upper portion of the stem” value (Ipomoea lacunosa L.; see Table 2) was “observed in one to two leaves under the sprayed region”, the “Effect, leaf 7” value (Ipomoea lacunosa L.; [5]) was “+++” and the “Effect, leaf 8” value (Ipomoea lacunosa L.; [5]) was “+++”. For the same compound, the “Effect, peak portion of stem” value (Ipomoea lacunosa L.; [5]) was “+++”, the Herbicidal activity (Solanum carolinense) was “high activity” and the Herbicidal activity (Abutilon theophrasti) was “high activity”. The “Phytotoxicity in soybean on spraying only the lower portion of a stem of morning glory spp.” value (soybean; control machine spraying in soybean field) was “scarce phytotoxicity”, the “Phytotoxicity in the cotyledon and the first leaf of soybean” value (soybean; [6]) was “observed” and the “Phytotoxicity in the upper leaves of soybean” value (soybean; [6]) was “little phytotoxicity”. For the same compound, the Bean weight (soybean; listed as Glufosinate (salt)) was 193 ± 29 kg/10 a, the Bean weight (soybean; listed as glufosinate) was 193 kg/10 a and the Herbicidal activity (Sida spinosa L.) was “high activity”. For the same compound, the “Herbicidal activity at low herbicidal amount” value (morning glory spp. [1]; 100 mL/10 a) was “high activity” and the Herbicidal activity (morning glory spp. [1]) was “high activity”.

With `CC(C)N.O=C(O)CNCP(=O)(O)O` [glyphosate isopropylammonium] the “Herbicidal activity at the field level” value (morning glory spp. [1]; at the field level in this test range) was “insufficient” and the “Manifestation of the activity” value (morning glory spp. [1]; on these plants (morning glory spp. and the other tested weeds)) was “specifically slow manifestation of the activity”.

From US7888286B2, “Method of selectively controlling morning glory (Ipomoea) spp” (Bayer CropScience AG, priority 2006, dated 2011)
